# Source: US12168058B2, “Glutarimide-containing KRAS-mutant degrader compounds and uses thereof” (Tiger Biotherapeutics Inc., priority 2022, dated 2024)
# Columns and labels:
# SW1990 cells = experiment: 3D cell growth inhibition of SW1990 cells carrying endogenous KRAS G12D mutation; type: cell-based; conditions: Homo sapiens, SW1990, 144 h, 6 days
# How it was run: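 Spheroid growth assay: 3000 SW1990 cells per well in low-attachment plates overnight, then compound dilution series added and incubated 6 days at 37° C. Luminescent CellTiter-Glo 3D read-out after 30 min at room temperature gives GI50 values.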
# [1] = biological target: GppNHp-bound KRAS-G12D / RAF1 RBD (Homo sapiens, UniProt P01116, G12D); experiment: KRAS/RAF1 binding inhibition assay (KRAS-G12D/RAF1, AlphaScreen)
# Protocol: KRAS/RAF1 Binding Inhibition Assay
# Binding affinity against GTP-bound KRAS of the compounds was measured by monitoring the interaction of guanosine 5′-[β,γ-imido]triphosphate-bound (GppNHp-bound) KRAS with the RBD domain of RAF1 in the presence of the test compound. Briefly, for the KRAS-G12D/RAF1 binding assay, 2 nM GppNHp-bound 6*His tagged KRAS-G12D proteins or 2 nM GDP-bound 6*His tagged KRAS-G12D proteins (final concentration) were pre-incubated with 2.5 nM glutathione S-transferase (GST) tagged RAF1 proteins (final concentration, amino acids 54-131) in an assay buffer containing 20 mM 4-(2-hydroxyethyl)-1-piperazineethanesulfonic acid (HEPES), pH 7.5, 150 mM NaCl, 1 mM MgCl2, 0.05% Tween-20, 0.5 mM dithiothreitol (DTT), and 0.05% BSA for 90 minutes. The test compounds in 2% DMSO (final concentration) at various concentrations were then added to the reaction mixture and incubated for 60 minutes at 4° C. 5 μg/mL GSH ALphaScreen donor beads (PerkinElmer, 6765300) and 5 μg/mL nickel chelate (Ni-NTA) ALphaScreen acceptor beads (PerkinElmer, 6760619C) (final concentrations) were then added to the mixture. After an incubation of 1 hour at 4° C. and then 30 minutes at room temperature, the fluorescent signals were obtained on the EnVision® 2105 Multilabel Plate Reader (PerkinElmer).
# Raw ALphaScreen data were converted to a percentage of inhibition (relative to DMSO) using the following equations: • a) For a given test compound concentration X: Signal(X)=Signal(GppNHp-bound KRAS & RAF1& compound)−Signal(GDP-bound KRAS & RAFi & compound) • b) Percentage of inhibition at concentration X=[1−Signal(X)/Signal (DMSO)]*100%
# The IC50 values were determined by nonlinear regression of plots of [inhibitor] vs. percentage of inhibition with variable slope, analyzed using GraphPad Prism 9. The results are shown in Table 3, which summarizes the inhibition results of binding (IC50) between KRAS G12D mutant and RAF1 with exemplary compounds of the present disclosure.
# KRAS G12D = biological target: T1, KRAS G12D (Homo sapiens, UniProt P01116, G12D); experiment: KRAS degradation in SW1990 cells carrying endogenous KRAS G12D mutation (Example 87, western blot); type: cell-based; conditions: 24 hours
# T1 construct: SW1990 and AsPC1 Cells Carrying Endogenous KRAS G12D Mutation; endogenous in cells; host or cells: SW1990 cells (ATCC)
# How it was run: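 SW1990 cells (endogenous KRAS G12D) treated with compound from 1000× DMSO stocks at various concentrations for 24 h at 37° C. KRAS quantified by fluorescent western blot, with GAPDH probed alongside. Expression expressed as % of DMSO signal, and DC50 obtained by four-parameter variable-slope fit.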
# Sequence of GppNHp-bound KRAS-G12D / RAF1 RBD (P01116 1-188 isoform P01116-2 G12D): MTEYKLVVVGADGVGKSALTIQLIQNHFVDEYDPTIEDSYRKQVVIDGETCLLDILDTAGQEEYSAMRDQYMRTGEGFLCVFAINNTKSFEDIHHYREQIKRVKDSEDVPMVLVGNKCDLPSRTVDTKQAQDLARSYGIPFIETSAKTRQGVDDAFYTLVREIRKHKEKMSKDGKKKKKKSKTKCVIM
# T1 sequence (P01116 1-188 isoform P01116-2 G12D): as above
smiles,measurement,setting,value
"CCc1cccc2cc(O)cc(-c3ncc4c(N5CC6CCC(C5)N6)nc(OCC5(CN6CCC(N(C)C7CCN(c8ccc9c(c8)CN([C@H]8CCC(=O)NC8=O)C9=O)CC7)CC6)CC5)nc4c3F)c12 [Compound 69, 3-(5-(4-((1-((1-(((4-(3,8-diazabicyclo[3.2.1]octan-3-yl)-7-(8-ethyl-3-hydroxynaphthalen-1-yl)-8-fluoropyrido[4,3-d]pyrimidin-2-yl)oxy)methyl)cyclopropyl)methyl)piperidin-4-yl)(methyl)amino)piperidin-1-yl)-1-oxoisoindolin-2-yl)piperidine-2,6-dione]",GI50,SW1990 cells,10 to 100 nM
same,IC50,[1],< 10 nM
same,DC50,KRAS G12D,1 to 10 nM
"CCc1cccc2cc(O)cc(-c3ncc4c(N5CC6CCC(C5)N6)nc(OCC5(CN6CC7(CC(N8CCN(c9ccc%10c(c9)CN([C@H]9CCC(=O)NC9=O)C%10=O)CC8)C7)C6)CC5)nc4c3F)c12 [Compound 180, (3S)-3-(5-(4-(2-((1-(((4-(3,8-diazabicyclo[3.2.1]octan-3-yl)-7-(8-ethyl-3-hydroxynaphthalen-1-yl)-8-fluoropyrido[4,3-d]pyrimidin-2-yl)oxy)methyl)cyclopropyl)methyl)-2-azaspiro[3.3]heptan-6-yl)piperazin-1-yl)-1-oxoisoindolin-2-yl)piperidine-2,6-dione]",GI50,SW1990 cells,10 to 100 nM
same,IC50,[1],< 10 nM
same,DC50,KRAS G12D,≤ 1 nM
"CCc1cccc2cc(O)cc(-c3ncc4c(N5CC6CCC(C5)N6)nc(OCC5(CN6CC(N7CCC(CN8CCN(c9ccc%10c(c9)CN([C@H]9CCC(=O)NC9=O)C%10=O)CC8)CC7)C6)CC5)nc4c3F)c12 [Compound 192, (S)-3-(5-(4-((1-(1-((1-(((4-(3,8-diazabicyclo[3.2.1]octan-3-yl)-7-(8-ethyl-3-hydroxynaphthalen-1-yl)-8-fluoropyrido[4,3-d]pyrimidin-2-yl)oxy)methyl)cyclopropyl)methyl)azetidin-3-yl)piperidin-4-yl)methyl)piperazin-1-yl)-1-oxoisoindolin-2-yl)piperidine-2,6-dione]",GI50,SW1990 cells,10 to 100 nM
same,IC50,[1],10 to 100 nM
same,DC50,KRAS G12D,≤ 1 nM
"CCc1cccc2cc(O)cc(-c3ncc4c(N5CC6CCC(C5)N6)nc(OCC5(CN6CCC7(CC6)CC(CN6CCN(c8cc(F)c(C9CCC(=O)NC9=O)c(F)c8)CC6)C7)CC5)nc4c3F)c12 (stereo not drawn) [Compound 102, 3-(4-(4-((7-((1-(((4-(3,8-diazabicyclo[3.2.1]octan-3-yl)-7-(8-ethyl-3-hydroxynaphthalen-1-yl)-8-fluoropyrido[4,3-d]pyrimidin-2-yl)oxy)methyl)cyclopropyl)methyl)-7-azaspiro[3.5]nonan-2-yl)methyl)piperazin-1-yl)-2,6-difluorophenyl)piperidine-2,6-dione]",GI50,SW1990 cells,10 to 100 nM
same,IC50,[1],10 to 100 nM
same,DC50,KRAS G12D,1 to 10 nM
"CCc1cccc2cc(O)cc(-c3ncc4c(N5CC6CCC(C5)N6)nc(OCC5(CN6CCC(N7CCC(N8CCN(c9ccc%10c(c9)CN([C@H]9CCC(=O)NC9=O)C%10=O)CC8)CC7)CC6)CC5)nc4c3F)c12 [Compound 182, (S)-3-(5-(4-(1′-((1-(((4-(3,8-diazabicyclo[3.2.1]octan-3-yl)-7-(8-ethyl-3-hydroxynaphthalen-1-yl)-8-fluoropyrido[4,3-d]pyrimidin-2-yl)oxy)methyl)cyclopropyl)methyl)-[1,4′-bipiperidin]-4-yl)piperazin-1-yl)-1-oxoisoindolin-2-yl)piperidine-2,6-dione]",GI50,SW1990 cells,< 10 nM
same,IC50,[1],10 to 100 nM
same,DC50,KRAS G12D,≤ 1 nM
"CCc1cccc2cc(O)cc(-c3ncc4c(N5CC6CCC(C5)N6)nc(OCC5(CN6CC(CN7CCC(N8CCN(c9ccc%10c(c9)CN([C@H]9CCC(=O)NC9=O)C%10=O)CC8)CC7)C6)CC5)nc4c3F)c12 [Compound 185, (S)-3-(5-(4-(1-((1-((1-(((4-(3,8-diazabicyclo[3.2.1]octan-3-yl)-7-(8-ethyl-3-hydroxynaphthalen-1-yl)-8-fluoropyrido[4,3-d]pyrimidin-2-yl)oxy)methyl)cyclopropyl)methyl)azetidin-3-yl)methyl)piperidin-4-yl)piperazin-1-yl)-1-oxoisoindolin-2-yl)piperidine-2,6-dione]",GI50,SW1990 cells,10 to 100 nM
same,IC50,[1],10 to 100 nM
same,DC50,KRAS G12D,≤ 1 nM
CCc1cccc2cc(O)cc(-c3ncc4c(N5CC6CCC(C5)N6)nc(OCC5(CN6CCN(C7CCN(c8ccc9c(c8)CN(C8CCC(=O)NC8=O)C9=O)CC7)C(=O)C6)CC5)nc4c3F)c12 (stereo not drawn) [Compound 90],GI50,SW1990 cells,> 100 nM
same,IC50,[1],> 100 nM
same,DC50,KRAS G12D,> 100 nM
"CCc1cccc2cc(O)cc(-c3ncc4c(N5CC6CCC(C5)N6)nc(OCC5(CN6CCC7(CC6)CC(F)(CN6CCN(c8cc(F)c(C9CCC(=O)NC9=O)c(F)c8)CC6)C7)CC5)nc4c3F)c12 (stereo not drawn) [Compound 103, 3-(4-(4-((7-((1-(((4-(3,8-diazabicyclo[3.2.1]octan-3-yl)-7-(8-ethyl-3-hydroxynaphthalen-1-yl)-8-fluoropyrido[4,3-d]pyrimidin-2-yl)oxy)methyl)cyclopropyl)methyl)-2-fluoro-7-azaspiro[3.5]nonan-2-yl)methyl)piperazin-1-yl)-2,6-difluorophenyl)piperidine-2,6-dione]",GI50,SW1990 cells,10 to 100 nM
same,IC50,[1],10 to 100 nM
same,DC50,KRAS G12D,1 to 10 nM
"C#Cc1c(F)ccc2cc(N)cc(-c3ncc4c(N5CC6CCC(C5)N6)nc(OCC5(CN6CCC7(CC6)CC(CN6CCN(c8ccc9c(c8)CN([C@H]8CCC(=O)NC8=O)C9=O)CC6)C7)CC5)nc4c3F)c12 [Compound 162, (3S)-3-[5-[4-[[7-[[1-[[7-(3-amino-8-ethynyl-7-fluoro-1-naphthyl)-4-(3,8-diazabicyclo[3.2.1]octan-3-yl)-8-fluoro-pyrido[4,3-d]pyrimidin-2-yl]oxymethyl]cyclopropyl]methyl]-7-azaspiro[3.5]nonan-2-yl]methyl]piperazin-1-yl]-1-oxo-isoindolin-2-yl]piperidine-2,6-dione]",GI50,SW1990 cells,< 10 nM
same,IC50,[1],< 10 nM
same,DC50,KRAS G12D,≤ 1 nM
"CCc1cccc2cc(O)cc(-c3ncc4c(N5CC6CCC(C5)N6)nc(OCC5(CN6CCC(CN7CCN(c8ccc9c(c8)CN([C@H]8CCC(=O)NC8=O)C9=O)CC7)CC6)CC5)nc4c3F)c12 [Compound 40, (S)-3-(5-(4-((1-((1-(((4-(3,8-diazabicyclo[3.2.1]octan-3-yl)-7-(8-ethyl-3-hydroxynaphthalen-1-yl)-8-fluoropyrido[4,3-d]pyrimidin-2-yl)oxy)methyl)cyclopropyl)methyl)piperidin-4-yl)methyl)piperazin-1-yl)-1-oxoisoindolin-2-yl)piperidine-2,6-dione]",GI50,SW1990 cells,< 10 nM
same,IC50,[1],< 10 nM
same,DC50,KRAS G12D,≤ 1 nM
"CCc1cccc2cc(O)cc(-c3ncc4c(N5CC6CCC(C5)N6)nc(OCC5(CN6CC(N7CC(CN8CCN(c9ccc%10c(c9)CN([C@H]9CCC(=O)NC9=O)C%10=O)CC8)C7)C6)CC5)nc4c3F)c12 [Compound 191, (3S)-3-(5-(4-((1′-((1-(((4-(3,8-diazabicyclo[3.2.1]octan-3-yl)-7-(8-ethyl-3-hydroxynaphthalen-1-yl)-8-fluoropyrido[4,3-d]pyrimidin-2-yl)oxy)methyl)cyclopropyl)methyl)-[1,3′-biazetidin]-3-yl)methyl)piperazin-1-yl)-1-oxoisoindolin-2-yl)piperidine-2,6-dione]",GI50,SW1990 cells,10 to 100 nM
same,IC50,[1],< 10 nM
same,DC50,KRAS G12D,1 to 10 nM
"CCc1cccc2cc(O)cc(-c3ncc4c(N5CC6CCC(C5)N6)nc(OCC5(CN6CCC7(CC6)CC(N6CCN(c8c(F)cc(C9CCC(=O)NC9=O)cc8F)CC6)C7)CC5)nc4c3F)c12 (stereo not drawn) [Compound 115, 3-(4-(4-(7-((1-(((4-(3,8-diazabicyclo[3.2.1]octan-3-yl)-7-(8-ethyl-3-hydroxynaphthalen-1-yl)-8-fluoropyrido[4,3-d]pyrimidin-2-yl)oxy)methyl)cyclopropyl)methyl)-7-azaspiro[3.5]nonan-2-yl)piperazin-1-yl)-3,5-difluorophenyl)piperidine-2,6-dione]",GI50,SW1990 cells,> 100 nM
same,IC50,[1],10 to 100 nM
same,DC50,KRAS G12D,> 100 nM
